Experimental data taken from patent publication US9187497B2, “Substituted pyrido[3,2-e]pyrrolo[1,2-a]pyrazines as inhibitors of poly(ADP-ribose)polymerase (PARP)” (Takeda Phamaceutical Company Limited, priority 2009, dated 2015).
pIC50: −log10 of the molar value.

Tested on: Jurkat cell line
Test: PARP cellular chemopotentiation assay (MTS cell viability with and without TMZ)
Format: cell-based
Details: ratio of EC50 for inhibition of cell viability without and with 100 μM TMZ; Jurkat cells, 96 hours of treatment
Method: Potentiation Factor (PF50) Determination from PARP Cellular Chemopotentiation Assay
Jurkat cell line was maintained according to the supplier (American Type Culture Collection (Rockville, Md.)). Cells were seeded in 96-well tissue culture microplates at 10,000 cells per well and cultured for 24 hours prior to addition of compounds, TMZ (Temozolomide) or DMSO (dimethylsulfoxide) vehicle. After 96 hours of treatment, the conversion of MTS ([3-(4,5-dimethylthiazol-2-yl)-5-(3-carboxymethoxyphenyl)-2-(4-sulfophenyl)-2H-tetrazolium, inner salt], Promega, Madison, Wis.) by metabolically active cells was determined through measuring the OD490 nm with a Spectramax microplate reader (Molecular Devices, San Diego, Calif.). To generate concentration-response curves, cells were treated in duplicate with a range of serial compound dilutions (final DMSO concentration was 0.5%) in the absence or presence of 100 μM TMZ chemoreagent. The percentage of viable cells per well was calculated by correction for background and normalizing against DMSO-treated cells. EC50 values for inhibition of cell viability were calculated using XLfit4 MicroSoft Excel curve-fitting software. Chemopotentiation factor PF50 was calculated as the ratio of EC50 values of cells co-treated without and with TMZ, respectively.

Compound	PF50
O=C1Nc2cc(CN3CC=C(c4ccc(Cl)cc4)CC3)cnc2N2CCSC[C@@H]12 [Compound 91, (R)-3-((4-(4-chlorophenyl)-5,6-dihydropyridin-1(2H)-yl)methyl)-6a,7,9,10-tetrahydropyrido[3,2-e][1,4]thiazino[4,3-a]pyrazin-6(5H)-one]	>2000
O=C1Nc2cc(CN3CCN(c4ccc(Cl)cc4)CC3)cnc2N2CCOCC12 (stereo not shown) [Compound 93, 3-((4-(4-chlorophenyl)piperazin-1-yl)methyl)-6a,7,9,10-tetrahydro-[1,4]oxazino[4,3-a]pyrido[3,2-e]pyrazin-6(5H)-one]	≧0
CN1CCN2c3ncc(CN4CCN(c5ccc(Cl)cc5)CC4)cc3NC(=O)C2C1 (stereo not shown) [Compound 97, 7-[4-(4-Chloro-phenyl)-piperazin-1-ylmethyl]-2-methyl-1,3,4,10a-tetrahydro-2H,9H-2,4a,5,9-tetraaza-phenanthren-10-one]	≧0
CNC(=O)c1ccc(N2CCN(Cc3cnc4c(c3)NC(=O)[C@@H]3CSCCN43)CC2)cc1 [Compound 98, (R)—N-methyl-4-(4-((6-oxo-5,6,6a,7,9,10-hexahydropyrido[3,2-e][1,4]thiazino[4,3-a]pyrazin-3-yl)methyl)piperazin-1-yl)benzamide]	>5000
O=C(NC1CC1)c1ccc(N2CCN(Cc3cnc4c(c3)NC(=O)[C@@H]3CSCCN43)CC2)cc1 [Compound 99, (R)—N-cyclopropyl-4-(4-((6-oxo-5,6,6a,7,9,10-hexahydropyrido[3,2-e][1,4]thiazino[4,3-a]pyrazin-3-yl)methyl)piperazin-1-yl)benzamide]	>5000
N#Cc1ccc(N2CCN(Cc3cnc4c(c3)NC(=O)C3COCCN43)CC2)nc1 (stereo not shown) [Compound 100, 6-(4-((6-oxo-5,6,6a,7,9,10-hexahydro-[1,4]oxazino[4,3-a]pyrido[3,2-e]pyrazin-3-yl)methyl)piperazin-1-yl)nicotinonitrile]	>10

Biological target: T1, PARP (Homo sapiens, UniProt P09874)
T1 construct: purchased Trevigen 4684-096-01 (enzyme); kit 4684-096-K HT
T1 sequence (P09874 whole entry): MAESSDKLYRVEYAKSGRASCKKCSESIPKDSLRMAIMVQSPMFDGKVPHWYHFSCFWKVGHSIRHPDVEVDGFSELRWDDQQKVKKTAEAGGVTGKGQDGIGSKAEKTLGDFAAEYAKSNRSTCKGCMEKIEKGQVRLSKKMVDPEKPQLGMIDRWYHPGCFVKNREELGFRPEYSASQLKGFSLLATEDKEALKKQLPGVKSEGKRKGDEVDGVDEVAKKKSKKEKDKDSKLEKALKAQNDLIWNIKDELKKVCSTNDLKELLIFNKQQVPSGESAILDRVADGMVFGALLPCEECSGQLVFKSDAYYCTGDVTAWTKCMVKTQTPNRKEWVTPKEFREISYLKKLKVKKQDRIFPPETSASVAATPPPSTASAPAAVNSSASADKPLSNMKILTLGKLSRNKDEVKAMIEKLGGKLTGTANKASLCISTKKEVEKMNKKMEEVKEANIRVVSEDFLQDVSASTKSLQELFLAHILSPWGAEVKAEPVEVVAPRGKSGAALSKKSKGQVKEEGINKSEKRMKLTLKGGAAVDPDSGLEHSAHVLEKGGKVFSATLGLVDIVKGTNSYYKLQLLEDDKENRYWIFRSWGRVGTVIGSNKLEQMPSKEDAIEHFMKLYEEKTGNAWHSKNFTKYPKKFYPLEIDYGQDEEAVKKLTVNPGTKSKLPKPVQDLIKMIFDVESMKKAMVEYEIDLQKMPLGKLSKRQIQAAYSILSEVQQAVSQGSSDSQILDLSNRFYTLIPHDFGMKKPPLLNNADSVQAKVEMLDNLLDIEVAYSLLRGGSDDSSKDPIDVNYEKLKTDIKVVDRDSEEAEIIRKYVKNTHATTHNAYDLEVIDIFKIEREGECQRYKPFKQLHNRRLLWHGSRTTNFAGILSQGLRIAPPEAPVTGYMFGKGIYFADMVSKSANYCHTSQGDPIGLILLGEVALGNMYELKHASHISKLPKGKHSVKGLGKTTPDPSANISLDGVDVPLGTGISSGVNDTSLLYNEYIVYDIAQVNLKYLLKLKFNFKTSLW
Test: PARP ELISA colorimetric assay of inhibition of PARP catalytic activity (IC50)
Format: biochemical
Details: pIC50=-log(IC50), IC50 in molar concentration; ELISA-based PARP kit, 10 minutes of catalysis
Method: Inhibition Constant (IC50) from PARP ELISA
Inhibition of PARP catalytic activity was determined by use of an ELISA-based colorimetric PARP/Apoptosis Assay kit (part number 4684-096-K HT, Trevigen). To each histone coated well in the 96-well plate supplied by the manufacturer (part number 4677-096-P) is added 39 μl of PARP buffer (part number 4671-096-02) and 1 μl of test compound dissolved in DMSO (diluted serially 3-fold 11 times). After mixing, 5 μl of 0.1 nM PARP (part number 4684-096-01) is added and the solution allowed to stand at ambient temperature for 10 minutes. PARP catalysis is initiated with the addition of 5 μl of 100 μM β-nicotinamide adenine dinucleotide (NAD+) (part number 4684-096-02) with activated DNA (part number 4671-096-06). After 10 minutes of catalysis the reaction is quenched by solvent aspiration followed by irrigation of the assay wells 4 times with phosphate buffered saline (PBS) containing 0.1% t-Octylphenoxypolyethoxyethanol (Triton® X-100). Mouse Anti-poly ADP ribose (PAR) monoclonal antibody, goat antimouse immunoglobulin G (IgG)-horse radish peroxidase (HRP) conjugate and HRP substrate are added according to the manufacture's specifications to generate a colorimetric signal proportional to PARP catalytic activity. An IC50 for the test compound is calculated from the equation Absorbance=(Amax−background)/(1+([cmpd]/IC50)^n)+background fit to the 12 point test compound concentration gradient via nonlinear least squares.

Compound	pIC50
O=C1Nc2cc(CN3CCN(c4ccc(-c5ccccn5)cc4)CC3)cnc2N2CCCC[C@@H]12 [Compound 157, (S)-3-((4-(4-(pyridin-2-yl)phenyl)piperazin-1-yl)methyl)-7,8,9,10-tetrahydro-5H-dipyrido[1,2-a:3′,2′-e]pyrazin-6(6aH)-one]	≤ 7.30
O=C1Nc2cc(CN3CCN(c4ccc(-c5cccnc5)cc4)CC3)cnc2N2CCCC[C@@H]12 [Compound 158, (S)-3-((4-(4-(pyridin-3-yl)phenyl)piperazin-1-yl)methyl)-7,8,9,10-tetrahydro-5H-dipyrido[1,2-a:3′,2′-e]pyrazin-6(6aH)-one]	≤ 7.30
Cc1ccc(-c2ccc(N3CCN(Cc4cnc5c(c4)NC(=O)[C@@H]4CCCCN54)CC3)cc2)s1 [Compound 159, (S)-3-((4-(4-(5-methylthiophen-2-yl)phenyl)piperazin-1-yl)methyl)-7,8,9,10-tetrahydro-5H-dipyrido[1,2-a:3′,2′-e]pyrazin-6(6aH)-one]	≤ 7.30
O=C1Nc2cc(CN3CCN(c4ccc(-c5ccccc5CO)cc4)CC3)cnc2N2CCCC[C@@H]12 [Compound 160, (S)-3-((4-(2′-(hydroxymethyl)biphenyl-4-yl)piperazin-1-yl)methyl)-7,8,9,10-tetrahydro-5H-dipyrido[1,2-a:3′,2′-e]pyrazin-6(6aH)-one]	≤ 7.30

The remaining lines, values ahead:

pIC50	Compound
≤ 7.30	CC(C)N1CC(=O)Nc2cc(CN3CCC(c4ccc(Cl)cc4)CC3)cnc21 [Compound 96, 7-((4-(4-chlorophenyl)piperidin-1-yl)methyl)-4-isopropyl-3,4-dihydropyrido[2,3-b]pyrazin-2(1H)-one]
7.40 to 7.80	CCOC(=O)c1ccc(N2CCN(Cc3cnc4c(c3)NC(=O)[C@@H]3CCCN43)CC2)nc1 [Compound 121, (S)-ethyl 6-(4-((6-oxo-5,6,6a,7,8,9-hexahydropyrido[3,2-e]pyrrolo[1,2-a]pyrazin-3-yl)methyl)piperazin-1-yl)nicotinate]
≤ 7.30	COc1cc(-c2ccc(N3CCN(Cc4cnc5c(c4)NC(=O)[C@@H]4CCCCN54)CC3)cc2)ccn1 [Compound 144, (S)-3-((4-(4-(2-methoxypyridin-4-yl)phenyl)piperazin-1-yl)methyl)-7,8,9,10-tetrahydro-5H-dipyrido[1,2-a:3′,2′-e]pyrazin-6(6aH)-one]
≤ 7.30	Nc1cccc(-c2ccc(N3CCN(Cc4cnc5c(c4)NC(=O)[C@@H]4CCCCN54)CC3)cc2)n1 [Compound 145, (S)-3-((4-(4-(6-aminopyridin-2-yl)phenyl)piperazin-1-yl)methyl)-7,8,9,10-tetrahydro-5H-dipyrido[1,2-a:3′,2′-e]pyrazin-6(6aH)-one]
7.40 to 7.80	O=C1Nc2cc(CN3CCN(c4ccc(-c5ccsc5)cc4)CC3)cnc2N2CCCC[C@@H]12 [Compound 146, (S)-3-((4-(4-(thiophen-3-yl)phenyl)piperazin-1-yl)methyl)-7,8,9,10-tetrahydro-5H-dipyrido[1,2-a:3′,2′-e]pyrazin-6(6aH)-one]
≤ 7.30	O=C1Nc2cc(CN3CCN(c4ccc(-c5cccs5)cc4)CC3)cnc2N2CCCC[C@@H]12 [Compound 147, (S)-3-((4-(4-(thiophen-2-yl)phenyl)piperazin-1-yl)methyl)-7,8,9,10-tetrahydro-5H-dipyrido[1,2-a:3′,2′-e]pyrazin-6(6aH)-one]
7.40 to 7.80	O=C1Nc2cc(CN3CCN(c4ccc(-c5ccncc5)cc4)CC3)cnc2N2CCCC[C@@H]12 [Compound 148, (S)-3-((4-(4-(pyridin-4-yl)phenyl)piperazin-1-yl)methyl)-7,8,9,10-tetrahydro-5H-dipyrido[1,2-a:3′,2′-e]pyrazin-6(6aH)-one]
≤ 7.30	O=C1Nc2cc(CN3CCN(c4ccc(-c5ccccc5)cc4)CC3)cnc2N2CCCC[C@@H]12 [Compound 149, (S)-3-((4-(biphenyl-4-yl)piperazin-1-yl)methyl)-7,8,9,10-tetrahydro-5H-dipyrido[1,2-a:3′,2′-e]pyrazin-6(6aH)-one]
≤ 7.30	COc1ccc(-c2ccc(N3CCN(Cc4cnc5c(c4)NC(=O)[C@@H]4CCCCN54)CC3)cc2)cn1 [Compound 150, (S)-3-((4-(4-(6-methoxypyridin-3-yl)phenyl)piperazin-1-yl)methyl)-7,8,9,10-tetrahydro-5H-dipyrido[1,2-a:3′,2′-e]pyrazin-6(6aH)-one]
≤ 7.30	O=C1Nc2cc(CN3CCN(c4ccc(-c5cncnc5)cc4)CC3)cnc2N2CCCC[C@@H]12 [Compound 151, (S)-3-((4-(4-(pyrimidin-5-yl)phenyl)piperazin-1-yl)methyl)-7,8,9,10-tetrahydro-5H-dipyrido[1,2-a:3′,2′-e]pyrazin-6(6aH)-one]
7.40 to 7.80	COc1ncc(-c2ccc(N3CCN(Cc4cnc5c(c4)NC(=O)[C@@H]4CCCCN54)CC3)cc2)cn1 [Compound 152, (S)-3-((4-(4-(2-methoxypyrimidin-5-yl)phenyl)piperazin-1-yl)methyl)-7,8,9,10-tetrahydro-5H-dipyrido[1,2-a:3′,2′-e]pyrazin-6(6aH)-one]
≤ 7.30	COc1cnccc1-c1ccc(N2CCN(Cc3cnc4c(c3)NC(=O)[C@@H]3CCCCN43)CC2)cc1 [Compound 153, (S)-3-((4-(4-(3-methoxypyridin-4-yl)phenyl)piperazin-1-yl)methyl)-7,8,9,10-tetrahydro-5H-dipyrido[1,2-a:3′,2′-e]pyrazin-6(6aH)-one]
≤ 7.30	Cc1ccccc1-c1ccc(N2CCN(Cc3cnc4c(c3)NC(=O)[C@@H]3CCCCN43)CC2)cc1 [Compound 154, (S)-3-((4-(2′-methylbiphenyl-4-yl)piperazin-1-yl)methyl)-7,8,9,10-tetrahydro-5H-dipyrido[1,2-a:3′,2′-e]pyrazin-6(6aH)-one]
≤ 7.30	Cc1cnccc1-c1ccc(N2CCN(Cc3cnc4c(c3)NC(=O)[C@@H]3CCCCN43)CC2)cc1 [Compound 155, (S)-3-((4-(4-(3-methylpyridin-4-yl)phenyl)piperazin-1-yl)methyl)-7,8,9,10-tetrahydro-5H-dipyrido[1,2-a:3′,2′-e]pyrazin-6(6aH)-one]
≤ 7.30	COc1cccc(-c2ccc(N3CCN(Cc4cnc5c(c4)NC(=O)[C@@H]4CCCCN54)CC3)cc2)n1 [Compound 156, (S)-3-((4-(4-(6-methoxypyridin-2-yl)phenyl)piperazin-1-yl)methyl)-7,8,9,10-tetrahydro-5H-dipyrido[1,2-a:3′,2′-e]pyrazin-6(6aH)-one]
